Here are results for 14 compounds from patent publication US20040146519A1, “Inducing cellular immune responses to carcinoembryonic antigen using peptide and nucleic acid compositions” (priority 2002, published 2004).

Where two headings read alike, the source gives them in different places. Where no end group is shown, it is not given here.

One assay concerns the target HLA-A*6802 (Homo sapiens, UniProt P04439, A269V/D140Y/D185E/E176V/E277Q/E87N/F33Y/G231S/I121R/I166T/I218V/L180W/L300P/L318F/N151K/P208A/P217A/Q86R/R138H/R169H/S129P/T345S/V36M). The experiment in a line: HLA class I binding assay, purified HLA-A*6802. The settings on record: Table XXII, binding affinity.
The target in the next assay is HLA-A*0202 (Homo sapiens, UniProt P04439, D140Y/D185E/D98H/E176V/E277Q/G131W/G231S/I119L/I121R/I166T/I218V/L180W/L300P/L318F/N151K/N90K/P208A/P217A/Q67R/Q86G/Q94H/R138H/R169H/T345S). The experiment in a line: HLA class I binding assay, purified HLA-A*0202. As to conditions: Table XXII, binding affinity.
The target in another assay is HLA-A*0203 (Homo sapiens, UniProt P04439, A173T/D140Y/D185E/D98H/E277Q/G131W/G231S/I119V/I121R/I166T/I218V/L180W/L300P/L318F/N151K/N90K/P208A/P217A/Q86G/Q94H/R138H/R169H/T345S). The experiment in a line: HLA class I binding assay, purified HLA-A*0203. As to conditions: Table XXII, binding affinity.
The target of a further assay is HLA-DRB1*0401 (Homo sapiens, UniProt P01903+P01911, A100K/A169T/F76Y/I96L/K127E/L162R/M171V/N62H/P40V/Q125Y/R42H/S133A/S149N/S66Y/V115G/V209L/W38E). Kind of assay: HLA class II binding assay, DRB1*0401 (DR4w4).
The target in the next assay is HLA-A*6801 (Homo sapiens, UniProt P04439, A269V/D185E/E176V/E277Q/E87N/F33Y/G231S/I121M/I166T/I218V/L180W/L300P/L318F/N151K/P208A/P217A/Q86R/R169H/T345S). Kind of assay: HLA class I binding assay, purified HLA-A*6801. As to conditions: Table XXIII, binding affinity.
Another assay deals with HLA-A*3301 (Homo sapiens, UniProt P04439, A270S/D185E/E176V/E277Q/E87N/F33T/G231S/H175R/I121M/I218V/I322F/K168Q/K210R/L300P/L318F/M331R/P217A/Q86R/Q94H/R138Q/T323A/T345S/T97I/V358M/Y195H). Kind of assay: HLA class I binding assay, purified HLA-A*3301. As to conditions: Table XXIII, binding affinity.
The target of a further assay is HLA-A*3101 (Homo sapiens, UniProt P04439, A270S/D185E/E176V/E277Q/F33T/G231S/G80R/H175R/I121M/I218V/I322F/K168Q/L300P/L318F/M331R/P217A/Q94H/R138Q/T323A/T345S/T97I/V358M). Kind of assay: HLA class I binding assay, purified HLA-A*3101. The settings on record: Table XXIII, binding affinity.
Another assay has as its target HLA-A*1101 (Homo sapiens, UniProt P04439, A114D/D185E/E176A/F33Y/L180Q/S129P/T187R). Kind of assay: HLA class I binding assay, purified HLA-A*1101. As to conditions: Table XXIII, binding affinity.
For another assay, the target named is HLA-A*0206 (Homo sapiens, UniProt P04439, D140Y/D185E/D98H/E176V/E277Q/F33Y/G131W/G231S/I119V/I121R/I166T/I218V/L300P/L318F/N151K/N90K/P208A/P217A/Q86G/Q94H/R138H/R169H/T345S). The experiment in a line: HLA class I binding assay, purified HLA-A*0206. The settings on record: Table XXII, binding affinity.
The next assay deals with HLA-A*0201 (Homo sapiens, UniProt P04439, D140Y/D185E/D98H/E176V/E277Q/G131W/G231S/I119V/I121R/I166T/I218V/L300P/L318F/N151K/N90K/P208A/P217A/Q86G/Q94H/R138H/R169H/T345S). Kind of assay: HLA class I binding assay, purified HLA-A*0201. As to conditions: Table XXII, binding affinity.
Setting [1] is: HLA Class II motif and supermotif-bearing epitopes.

For the compound `CC[C@H](C)[C@H](NC(=O)[C@H](CC(C)C)NC(=O)[C@@H](N)CCC(N)=O)C(=O)NCC(=O)N[C@@H](Cc1ccc(O)cc1)C(=O)N[C@H](C(=O)N[C@H](C(=O)NCC(=O)N[C@H](C(=O)O)C(C)C)[C@@H](C)CC)C(C)C` [CEA.78L2V9], the IC50 on HLA-A*6802 was 2.3 nM; on HLA-A*0202, 5.9 nM; on HLA-A*0203, 2.3 nM.
`CC[C@H](C)[C@H](NC(=O)[C@H](CC(N)=O)NC(=O)[C@@H](N)CCC(N)=O)C(=O)N[C@H](C(=O)N[C@@H](CCC(N)=O)C(=O)N[C@@H](CC(N)=O)C(=O)N[C@@H](CC(=O)O)C(=O)N[C@H](C(=O)NCC(=O)N[C@@H](Cc1ccccc1)C(=O)N[C@@H](Cc1ccc(O)cc1)C(=O)N[C@H](C(=O)N[C@@H](CC(C)C)C(=O)N[C@@H](Cc1c[nH]cn1)C(=O)N[C@H](C(=O)O)C(C)C)[C@@H](C)O)[C@@H](C)O)[C@@H](C)CC` [CEA.110] registered an IC50 on HLA-DRB1*0401 (setting [1]) greater than 8180 nM.
With `CC(C)C[C@H](NC(=O)[C@H](CCCNC(=N)N)NC(=O)[C@@H]1CCCN1C(=O)[C@H](CO)NC(=O)[C@@H](NC(=O)[C@@H]1CCCN1C(=O)[C@H](CC(C)C)NC(=O)[C@H](CO)NC(=O)[C@H](CCC(N)=O)NC(=O)[C@H](CC(N)=O)NC(=O)[C@H](CC(N)=O)NC(=O)[C@@H](NC(=O)[C@H](Cc1c[nH]c2ccccc12)NC(=O)[C@H](Cc1c[nH]c2ccccc12)NC(=O)[C@@H](N)CC(C)C)C(C)C)C(C)C)C(=O)O` [CEA.177], the IC50 at HLA-DRB1*0401 (DR supertype primary binding, read-out: DR4w4 binding affinity) is 1550 nM.
`CC(C)C[C@H](NC(=O)[C@H](CC(C)C)NC(=O)[C@@H](NC(=O)[C@H](CC(C)C)NC(=O)[C@@H](NC(=O)[C@H](CCCNC(=N)N)NC(=O)[C@H](CC(N)=O)NC(=O)[C@H](CC(=O)O)NC(=O)[C@H](CC(N)=O)NC(=O)[C@H](CO)NC(=O)[C@H](CC(C)C)NC(=O)[C@H](CCC(N)=O)NC(=O)[C@H](CC(C)C)NC(=O)[C@@H](N)CCCNC(=N)N)[C@@H](C)O)[C@@H](C)O)C(=O)N[C@@H](CO)C(=O)O` [CEA.368]: at HLA-DRB1*0401 (setting [1]), the IC50 is greater than 8180 nM.
For the compound `CC(C)C[C@H](NC(=O)[C@H](CC(C)C)NC(=O)[C@@H](NC(=O)[C@H](CC(C)C)NC(=O)[C@@H](NC(=O)[C@@H](N)CCCNC(=N)N)C(C)C)[C@@H](C)O)C(=O)N[C@@H](CO)C(=O)N[C@H](C(=O)N[C@H](C(=O)N[C@@H](CCCCN)C(=O)O)[C@@H](C)O)C(C)C` [CEA.376.V2K10], the IC50 on HLA-A*6801 was 5710 nM; on HLA-A*3301, greater than 10000 nM; at HLA-A*3101, 164 nM.
Regarding `CC(C)[C@H](NC(=O)[C@@H](N)[C@@H](C)O)C(=O)N[C@@H](CO)C(=O)N1CCC[C@H]1C(=O)N[C@@H](CO)C(=O)N[C@@H](Cc1ccc(O)cc1)C(=O)N[C@H](C(=O)N[C@@H](Cc1ccc(O)cc1)C(=O)N[C@@H](Cc1ccc(O)cc1)C(=O)N[C@@H](CCCCN)C(=O)O)[C@@H](C)O` [CEA.419.V2K10], the IC50 at HLA-A*6801 is 6.7 nM; at HLA-A*3301, greater than 10000 nM; at HLA-A*1101 it was 43 nM; at HLA-A*3101 it was 3670 nM.
On to `CC[C@H](C)[C@H](N)C(=O)N[C@H](C(=O)N1CCC[C@H]1C(=O)N[C@@H](CO)C(=O)N[C@@H](Cc1ccc(O)cc1)C(=O)N[C@H](C(=O)N[C@@H](Cc1ccc(O)cc1)C(=O)N[C@@H](Cc1ccc(O)cc1)C(=O)N[C@@H](CCCCN)C(=O)O)[C@@H](C)O)C(C)C` [CEA.420.V2K9], for which the IC50 at HLA-A*6801 is 22 nM; at HLA-A*3301 it was 4330 nM; at HLA-A*3101, 720 nM.
Take `CC(C)C[C@H](NC(=O)[C@@H](NC(=O)[C@@H](N)CCCNC(=N)N)C(C)C)C(=O)N[C@H](C(=O)N[C@@H](CC(C)C)C(=O)N[C@@H](Cc1ccccc1)C(=O)N[C@@H](CC(N)=O)C(=O)N[C@H](C(=O)N[C@H](C(=O)N[C@@H](CCCCN)C(=O)O)[C@@H](C)O)C(C)C)[C@@H](C)O` [CEA.554.V42K10]: the IC50 was 2350 nM at HLA-A*6801, greater than 10000 nM on HLA-A*3301, 32 nM at HLA-A*1101 and 234 nM on HLA-A*3101.
`CC[C@H](C)[C@H](NC(=O)CNC(=O)[C@H](CS)NC(=O)[C@H](CC(C)C)NC(=O)[C@@H](N)Cc1ccc(O)cc1)C(=O)N[C@@H](CCC(N)=O)C(=O)N[C@@H](CC(N)=O)C(=O)N[C@@H](CO)C(=O)N[C@H](C(=O)O)C(C)C` [CEA.569L2]: the IC50 at HLA-A*6802 came out at 3480 nM; on HLA-A*0202 it was 24 nM; on HLA-A*0206 it was 31 nM.
In the case of `CC(C)C[C@H](NC(=O)[C@H](CC(N)=O)NC(=O)[C@H](CO)NC(=O)[C@@H](NC(=O)[C@@H](N)Cc1ccccc1)C(C)C)C(=O)N[C@@H](C)C(=O)N[C@H](C(=O)NCC(=O)N[C@@H](CCCCN)C(=O)O)[C@@H](C)O` [CEA.656.K9], the IC50 at HLA-A*6801 is 5.3 nM; on HLA-A*3301, greater than 10000 nM; on HLA-A*1101 it was 207 nM; on HLA-A*3101, greater than 10000 nM.
For the compound `CC[C@H](C)[C@H](NC(=O)CNC(=O)[C@@H](NC(=O)[C@H](CC(C)C)NC(=O)[C@H](C)N)C(C)C)C(=O)N[C@@H](CCSC)C(=O)N[C@H](C(=O)NCC(=O)N[C@H](C(=O)O)C(C)C)[C@@H](C)CC` [CEA.687L2], the IC50 on HLA-A*6802 stood at 102 nM; at HLA-A*0201 it was 10 nM; on HLA-A*0202, 63 nM; at HLA-A*0203 it was 31 nM; on HLA-A*0206 it was 100 nM.
As for `CC[C@H](C)[C@H](NC(=O)CN)C(=O)N[C@@H](CCSC)C(=O)N[C@H](C(=O)NCC(=O)N[C@H](C(=O)N[C@@H](CC(C)C)C(=O)N[C@H](C(=O)NCC(=O)N[C@H](C(=O)O)C(C)C)C(C)C)C(C)C)[C@@H](C)CC` [CEA.690], the IC50 at HLA-A*6802 was 500 nM; on HLA-A*0201, 64 nM; on HLA-A*0202 it was 205 nM; on HLA-A*0203, 31 nM; at HLA-A*0206, 142 nM.
As to `CC[C@H](C)[C@H](N)C(=O)N[C@@H](CC(C)C)C(=O)N[C@H](C(=O)NCC(=O)N[C@H](C(=O)N[C@@H](CC(C)C)C(=O)N[C@H](C(=O)NCC(=O)N[C@H](C(=O)O)C(C)C)C(C)C)C(C)C)[C@@H](C)CC` [CEA.691L2], the IC50 on HLA-A*6802 is 160 nM; on HLA-A*0201, 22 nM; on HLA-A*0202, 8 nM; on HLA-A*0203, 3.2 nM.
For the compound TVSPLNTSYK [CEA.241.V2K10], the IC50 on HLA-A*6801 was 7.3 nM; on HLA-A*3301, greater than 10000 nM; at HLA-A*1101 it was 6 nM; on HLA-A*3101, greater than 10000 nM.
